Here are results for one molecule from patent publication US20250114313A1, “OLIGO-BENZAMIDE ANALOGS AND THEIR USE IN CANCER TREATMENT” (BOARD OF REGENTS, THE UNIVERSITY OF TEXAS SYSTEM, priority 2022, published 2025).

As a reminder, the pIC50 is −log10 of the IC50, conventionally taken in molar units.

The subject of one data set is D2A1 xenografts. Briefly: D2A1 syngeneic tumor model. In kind it is in vivo, BALB/c mice. To be noted: 10 mg/kg daily. On the procedure: (§1) Animal Studies: All animal experiments were performed using UTHSA and UTSW IACUC approved protocols. For cell based xenograft tumor assays, TNBC cells (2×10^5-2×10^6) were mixed with an equal volume of matrigel and implanted in the mammary fat pads of 6-week-old female athymic nude mice as described^33. BALB/c mice were used for D2A1 syngeneic model. Once tumors reached measurable size, mice were divided into control (vehicle) and ERX-41 (10 mg/kg/oral) treatment groups. Mice bearing TNBC PDX tumors were purchased from Jackson laboratory (TM00089; TM00096; TM00098). TNBC PDX line UTPDX0001 establishment was earlier described^38. WHIM-20 ER+PDX model was purchased from Horizon Labs. OCa-PDX-38 was received from UTHSA ObGyn tissue procurement core. When tumors reached ˜750 mm^3 they were dissected into 2 mm^3 pieces and implanted into the mammary fat pads of 6 weeks old female SCID or NSG mice. When the tumor volume reached ˜200 mm^3, mice were randomized for treatment. The mice were monitored daily for adverse toxic effects and tumor volume was measured every 3-4 days using calipers. For establishing ES2 tumors, ES2/GFP/LUC cells were injected i.p. and tumors were measured twice a week using Xenogen in vivo imaging system. […] The mice were monitored daily for adverse toxic effects. […] The sections were scored by two independent evaluators blinded to the patient's clinical status.

In data set [1] the test system is ERα-positive cell lines. Nature of the data set: CellTiter-Glo assay, ERα-positive cell lines. Format: cell-based. To be noted: Homo sapiens, read-out: anti-proliferative IC50, CellTiter-Glo. The procedure:
(§2) Cell viability assays: Cells were seeded in 96-well plates (2×10^3 cells/well) one day before the treatment. Cells were treated with varying concentrations of ERX-41 or ERX-11 analogs for 3-6 days. Then effects of ERX-41 or ERX-11 analogs on cell viability were measured in triplicate or sextuplicate with multiple biological replicates using the WST-1 (Promega), MTT as previously described^33 or CellTiter-Glo 2.0 (Promega) assays.
For orientation: Cellular ATP, detected with luciferase, serves as a proxy for viable cell number.

The subject of data set [2] is normal human mammary epithelial cells (HMEC). Nature of the data set: Cell viability (WST, MTT, CellTiter-Glo), HMEC. Format: cell-based. To be noted: at >1 μM, MTT or CellTiter-Glo. The procedure: as §2
The subject of data set [3] is ovarian cancer PDX (OCa-PDX-38). Nature of the data set: Ovarian cancer PDX OCa-PDX-38. As to conditions: 10 mg/kg daily. Format: in vivo, NSG mice. The procedure:
as §1

Data set [4] relates to ERα-positive breast cancer cells (MCF-7, ZR-75). Nature of the data set: MTT cell viability, ERα-positive breast cancer cells. To be noted: Homo sapiens, MCF-7 and ZR-75, read-out: anti-proliferative IC50. In kind it is cell-based, Human. The procedure:
as §2

The subject of data set [5] is ERα-positive cell lines. Briefly: WST assay, ERα-positive cell lines. In kind it is cell-based. As to conditions: Homo sapiens, read-out: anti-proliferative IC50, WST. On the procedure:
as §2

Another data set deals with TNBC cells. Briefly: Ca^2+ flux in TNBC cells. In kind it is cell-based. To be noted: data not shown.
Data set [6] concerns MDA-MB-231 TNBC tumor xenografts. Nature of the data set: IHC of ER stress markers in TNBC xenografts after a single dose. In kind it is in vivo, mice. As to conditions: single dose 10 mg/kg oral, within 24 h. On the procedure:
Immunohistochemistry: Immunohistochemical studies were performed as described previously.^7 For the immunohistochemical studies, tissue sections were blocked in background sniper (Biocare Medical, RS966L) followed by overnight incubation with primary antibodies anti-Ki-67 antibody (1:1000, GeneTex cat #GTX16667 RRID:AB_422351) (link), anti-CHOP antibody (1:2000, Sigma, Cat #HPA068416), anti-PERK (phospho T982) antibody (1:150, Abcam Cat #ab192591, RRID:AB_2728666) link)), anti-phospho-eIF2α (Ser51) (1:50, Cell signaling, cs3398) and subsequent secondary antibody incubation for 60 min at room temperature. Immunoreactivity was visualized by using the DAB substrate and counterstained with hematoxylin (Vector Lab, Inc.). Percent of Ki67 positive proliferating cells was calculated in five randomly selected high-power fields (×40).

The subject of data set [7] is MDA-MB-231 TNBC xenografts. Briefly: MDA-MB-231 TNBC xenografts, ERX-41. Format: in vivo. As to conditions: oral, 10 mg/kg/day. On the procedure:
Animal Studies: All animal experiments were performed using UTHSA and UTSW IACUC approved protocols. For cell based xenograft tumor assays, TNBC cells (2×10^5-2×10^6) were mixed with an equal volume of matrigel and implanted in the mammary fat pads of 6-week-old female athymic nude mice as described^33. BALB/c mice were used for D2A1 syngeneic model. Once tumors reached measurable size, mice were divided into control (vehicle) and ERX-41 (10 mg/kg/oral) treatment groups. Mice bearing TNBC PDX tumors were purchased from Jackson laboratory (TM00089; TM00096; TM00098). TNBC PDX line UTPDX0001 establishment was earlier described^38. WHIM-20 ER+PDX model was purchased from Horizon Labs. OCa-PDX-38 was received from UTHSA ObGyn tissue procurement core. When tumors reached ˜750 mm^3 they were dissected into 2 mm^3 pieces and implanted into the mammary fat pads of 6 weeks old female SCID or NSG mice. When the tumor volume reached ˜200 mm^3, mice were randomized for treatment. The mice were monitored daily for adverse toxic effects and tumor volume was measured every 3-4 days using calipers. For establishing ES2 tumors, ES2/GFP/LUC cells were injected i.p. and tumors were measured twice a week using Xenogen in vivo imaging system. At the end of each experiment, the mice were euthanized, and the tumors were removed, weighed and processed for histological studies and protein analysis. Dose were selected based on pilot MTD study of 10, 50 100 mg/kg of ERX-41 for 14 days using C57BL6 mice. The mice were monitored daily for adverse toxic effects. IHC analysis was conducted as described previously^39 and immunoreactivity was visualized using DAB substrate and counterstained with hematoxylin (Vector Laboratories Inc. Burlingame, CA). Control rabbit IgG staining was used as a negative control. The sections were scored by two independent evaluators blinded to the patient's clinical status.

In another data set the target is T1, LAL lipase activity (Homo sapiens, UniProt P38571).
T1 construct: heat stability of LAL or vinculin protein in SUM-159 cells; endogenous in cells; host or cells: SUM-159
T1 sequence (P38571 77-399): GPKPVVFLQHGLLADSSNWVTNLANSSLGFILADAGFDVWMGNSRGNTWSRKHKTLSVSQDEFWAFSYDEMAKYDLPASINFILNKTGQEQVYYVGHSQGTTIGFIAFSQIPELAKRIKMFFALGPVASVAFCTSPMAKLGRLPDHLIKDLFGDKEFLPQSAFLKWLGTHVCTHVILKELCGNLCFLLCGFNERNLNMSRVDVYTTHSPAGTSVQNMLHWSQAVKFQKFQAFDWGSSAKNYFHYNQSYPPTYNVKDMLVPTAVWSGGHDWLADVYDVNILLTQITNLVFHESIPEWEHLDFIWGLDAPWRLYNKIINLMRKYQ
Nature of the data set: Lipase activity assay (4-MUP), SUM-159 cell lysate. Format: biochemical. To be noted: SUM-159 cells; 30 μM. On the procedure: Lipase activity assay: Lipase activity assays were performed as described previously (Dairaku, et al)^37. Briefly, a 0.345 mM substrate solution was prepared from 1.2 mL of 13.3 mM 4-MUP and 42 mL of 100 mM sodium acetate buffer pH 4.0, 1.0% (v/v) Triton X-100 and 3.0 mL of 0.5% (w/v) cardiolipin. For the enzyme reaction, 50 μL of the substrate in buffer solution, 40 μL of diluted cell lysate and 10 μL of DMSO or 30 μM Lalistat2 or 30 μM ERX-41 were combined in a black 96-well plate. The plates were sealed with an adhesive aluminum film and incubated in a 37° C. incubator for 1 h. The reactions were terminated using 200 μL of 150 mM EDTA at pH 11.5. The fluorescence of the plates were read immediately with synergy H1 fluorescence microplate reader (BioTek) using a 365-nm excitation filter and a 450-nm emission filter. The LIPA lipase activity was calculated by subtracting the enzymatic activity of the inhibited (with Lalistat2) reaction from that of the uninhibited (without Lalistat2) reaction.

Data set [8] has as its system TNBC cells (SUM-159, MDA-MB-231). Briefly: MTT cell viability, TNBC cells. In kind it is cell-based, Human. To be noted: for pIC50: MTT cell viability assays, read-out: antiproliferative IC50 against TNBC cells. The procedure:
as §2
For orientation: Formazan colour is commonly taken as a measure of viable cells.

pIC50: −log10 of the molar value. “Also recorded” adds a separate entry of the source. Where two headings read alike, the source gives them in different places. Where only a bound is given, the exact number is not on record here.

With `CC(C)COc1cc(C(=O)Nc2ccc(C(=O)N[C@H]3CC[C@H](C)CC3)cc2OCC(C)C)ccc1NC(=O)c1ccc([N+](=O)[O-])c(OCCO)c1` [ERX-41], in the data set with D2A1 xenografts, the “growth of D2A1 xenografts” value is listed as “significantly reduce the growth”. The pIC50 in the data set on ERα-positive cell lines [1] is 6.90 to 7.00; in [4] it was 6.90 to 7.00; in the data set with ERα-positive cell lines [5], 6.00 to 7.30; in [8] (Homo sapiens) it was 6.90 to 7.00; in [8] it was 7.00. Moreover, the “effect on normal human mammary epithelial cells” value in [2] is reported as “non-toxic; also recorded: did not have significant effect”. Also, in data set [3], the “activity against OCa-PDX-38” value is “has activity against”. In addition, the “Ca^2+ flux within TNBC cells” value with TNBC cells was “not able to induce Ca^2+ flux”. In addition, the “ER stress markers in tumor xenograft tissues” value in data set [6] was “enhanced p-PERK, and p-eIF2α staining”. In addition, in data set [7], the “extirpated tumor weights and sizes at end of study” value is given as “decreased tumor growth”. For the same molecule, the “growth of established xenografts” value in data set [7] is reported as “significantly decreased the growth”. Besides, in [7], the “overt toxicity, body weights of treated mice” value is given as “no alterations in body weights”. Also, the “lipase activity of LIPA” value at LAL lipase activity is “no inhibition of lipase activity”. Besides, in data set [8] (from IC50>10 μM to 100 nM), the “enhancement of potency in TNBC, ERX-41 vs ERX-11” value is over 100 fold.
